Assays:
Cathepsin G = Cathepsin G (Homo sapiens (Human), UniProt P08311); assay: Cathepsin G assay
Description: (§1) IC50 values for a number of substituted 3,1-benzoxazin-4-ones on a panel of human proteases were determined.

Recombinant human KLK7 = Recombinant human KLK7 (Homo sapiens (Human), UniProt P49862); assay: KLK7 assay; format: biochemical; settings: substrate S-2586, 37° C., pH 7.2
Trypsin = Trypsin (Bos taurus (Bovine), UniProt P00760); assay: Trypsin assay; format: biochemical, human; settings: substrate S-2288, 37° C., pH 7.2
Chymotrypsin, bovine = Chymotrypsin, bovine (Bos taurus (Bovine), UniProt P00766); assay: Chymotrypsin assay; format: biochemical; settings: substrate S-2586, 37° C., pH 7.2
Description: Materials: Chymotrypsin, bovine, 25 μg (Roche, sequence grade), Substrate S-2586 (Chromogenics, cat. no. 82 08 94)

Recombinant human KLK5 = Recombinant human KLK5 (Homo sapiens (Human), UniProt Q9Y337); assay: KLK5 assay
Sequence of Recombinant human KLK5 (Q9Y337 23-293): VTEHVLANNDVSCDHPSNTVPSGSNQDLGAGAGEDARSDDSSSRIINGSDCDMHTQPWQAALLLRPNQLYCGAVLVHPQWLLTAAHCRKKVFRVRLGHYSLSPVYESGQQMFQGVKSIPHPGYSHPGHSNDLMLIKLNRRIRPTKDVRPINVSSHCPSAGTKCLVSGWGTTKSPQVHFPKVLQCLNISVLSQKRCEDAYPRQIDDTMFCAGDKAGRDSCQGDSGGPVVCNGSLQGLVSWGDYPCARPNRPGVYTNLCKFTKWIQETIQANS
Description: as §1

Sequence of Cathepsin G (P08311 21-255): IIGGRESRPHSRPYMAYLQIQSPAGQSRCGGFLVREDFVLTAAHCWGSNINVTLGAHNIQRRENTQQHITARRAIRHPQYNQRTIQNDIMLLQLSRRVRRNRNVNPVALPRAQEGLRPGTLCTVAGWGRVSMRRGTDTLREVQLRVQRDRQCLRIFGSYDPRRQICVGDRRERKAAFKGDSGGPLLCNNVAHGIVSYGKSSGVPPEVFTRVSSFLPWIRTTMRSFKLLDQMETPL
Sequence of Trypsin (P00760 24-246): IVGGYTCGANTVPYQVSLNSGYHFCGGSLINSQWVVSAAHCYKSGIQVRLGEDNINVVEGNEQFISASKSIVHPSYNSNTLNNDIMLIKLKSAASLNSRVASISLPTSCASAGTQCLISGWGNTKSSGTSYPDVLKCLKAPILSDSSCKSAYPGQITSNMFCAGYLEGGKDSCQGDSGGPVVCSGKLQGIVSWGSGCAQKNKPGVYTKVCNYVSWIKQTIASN
Sequence of Recombinant human KLK7 (P49862 30-253): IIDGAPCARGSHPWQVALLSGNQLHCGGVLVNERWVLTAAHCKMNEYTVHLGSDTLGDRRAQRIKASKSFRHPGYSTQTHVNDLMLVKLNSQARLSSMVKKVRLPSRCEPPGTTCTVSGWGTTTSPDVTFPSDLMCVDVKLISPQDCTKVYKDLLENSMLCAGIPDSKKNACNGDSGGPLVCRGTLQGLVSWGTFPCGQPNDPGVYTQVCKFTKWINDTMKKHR

Row | SMILES | IC50 (Cathepsin G) [µM] | IC50 (Recombinant human KLK7) [µM] | IC50 (Trypsin) [µM] | IC50 (Chymotrypsin, bovine) [µM] | IC50 (Recombinant human KLK5) [µM]
1 | CCOc1cc2c(=O)oc(-c3ccccc3SC)nc2cc1OC [Compound 1, 6-ethoxy-7-methoxy-2-(2-methylsulfanylphenyl)-3,1-benzoxazin-4-one] | > 10 | 0.048 | > 10 | > 10 | 
2 | CCOc1cc2c(=O)oc(-c3ccccc3Cl)nc2cc1OC [Compound 2, 2-(2-chlorophenyl)-6-ethoxy-7-methoxy-3,1-benzoxazin-4-one] | > 10 | 0.073 | > 10 | > 10 | 
3 | CCOc1cc2c(=O)oc(-c3ccc(OC)cc3OC)nc2cc1OC [Compound 3] | 1.1 | 0.116 | > 10 | > 10 | 
4 | CCOc1cc2c(=O)oc(-c3ccccc3S(C)(=O)=O)nc2cc1OC [Compound 4] | 2.8 | 0.23 | > 10 | > 10 | 
5 | CCOc1cc2c(=O)oc(-c3ccccc3OC)nc2cc1OC [Compound 5] | 1.2 | 0.085 | > 10 | > 10 | 
6 | COc1ccccc1-c1nc2cc3c(cc2c(=O)o1)OCCCO3 [Compound 6] |  | 0.08 | > 10 | < 0.1 | 
7 | O=c1oc(-c2ccccc2Cl)nc2cc3c(cc12)OCCCO3 [Compound 7] | 1.9 | 0.09 | > 10 | < 0.1 | 
8 | COc1ccc(-c2nc3cc4c(cc3c(=O)o2)OCCCO4)c(OC)c1 [Compound 8] |  | 0.065 | > 10 | < 0.1 | 
9 | CSc1ccccc1-c1nc2cc3c(cc2c(=O)o1)OCCCO3 [Compound 9] | 1.3 | 0.228 | > 10 |  | 
10 | CS(=O)(=O)c1ccccc1-c1nc2cc3c(cc2c(=O)o1)OCCCO3 [Compound 10] |  | 0.188 | > 10 | 0.2 | 
11 | CC(C)c1ccc(-c2nc3cc4c(cc3c(=O)o2)OCCCO4)c(C(C)C)c1 [Compound 11] | > 10 | 1.37 | > 10 | 1 | 
12 | COc1cc2nc(-c3ccccc3SC)oc(=O)c2cc1OC [Compound 12] |  | 0.147 | > 10 |  | 
13 | COc1ccccc1-c1nc2cc3c(cc2c(=O)o1)OCCO3 [Compound 13] |  | 0.155 | 1.8 | < 0.1 | 
14 | CS(=O)(=O)c1ccccc1-c1nc2cc3c(cc2c(=O)o1)OCCO3 [Compound 14] |  | 0.183 | 1.8 | < 0.1 | 0.6
15 | COC1=CC=C(c2nc3cc4c(cc3c(=O)o2)OCCO4)C(OC)C1 (stereo not drawn) [Compound 15] |  | 0.105 | 3.7 | < 0.1 | 
16 | O=c1oc(-c2ccccc2Cl)nc2cc3c(cc12)OCCO3 [Compound 16] |  | 0.149 | 3.7 | < 0.1 | 
17 | COc1ccc(-c2nc3cc(OC)c(OC)cc3c(=O)o2)c(OC)c1 [Compound 17] | 0.1 | 0.175 | > 10 | 1.2 | 1
18 | COc1cc2nc(-c3ccccc3I)oc(=O)c2cc1OC [Compound 18] | 1.9 |  | > 10 | > 10 | 

From patent publication US9695194B2, “Benzoxazinone derivatives for treatment of skin diseases” (SIXERA PHARMA AB, priority 2014, dated 2017)
